Laboratory results published in the Kinase Knowledgebase extract (Sharma et al. 2016).

These compounds were tested against EGFR (human) (UniProt P00533).
EGFR (human), sequence (P00533 whole entry, looked up): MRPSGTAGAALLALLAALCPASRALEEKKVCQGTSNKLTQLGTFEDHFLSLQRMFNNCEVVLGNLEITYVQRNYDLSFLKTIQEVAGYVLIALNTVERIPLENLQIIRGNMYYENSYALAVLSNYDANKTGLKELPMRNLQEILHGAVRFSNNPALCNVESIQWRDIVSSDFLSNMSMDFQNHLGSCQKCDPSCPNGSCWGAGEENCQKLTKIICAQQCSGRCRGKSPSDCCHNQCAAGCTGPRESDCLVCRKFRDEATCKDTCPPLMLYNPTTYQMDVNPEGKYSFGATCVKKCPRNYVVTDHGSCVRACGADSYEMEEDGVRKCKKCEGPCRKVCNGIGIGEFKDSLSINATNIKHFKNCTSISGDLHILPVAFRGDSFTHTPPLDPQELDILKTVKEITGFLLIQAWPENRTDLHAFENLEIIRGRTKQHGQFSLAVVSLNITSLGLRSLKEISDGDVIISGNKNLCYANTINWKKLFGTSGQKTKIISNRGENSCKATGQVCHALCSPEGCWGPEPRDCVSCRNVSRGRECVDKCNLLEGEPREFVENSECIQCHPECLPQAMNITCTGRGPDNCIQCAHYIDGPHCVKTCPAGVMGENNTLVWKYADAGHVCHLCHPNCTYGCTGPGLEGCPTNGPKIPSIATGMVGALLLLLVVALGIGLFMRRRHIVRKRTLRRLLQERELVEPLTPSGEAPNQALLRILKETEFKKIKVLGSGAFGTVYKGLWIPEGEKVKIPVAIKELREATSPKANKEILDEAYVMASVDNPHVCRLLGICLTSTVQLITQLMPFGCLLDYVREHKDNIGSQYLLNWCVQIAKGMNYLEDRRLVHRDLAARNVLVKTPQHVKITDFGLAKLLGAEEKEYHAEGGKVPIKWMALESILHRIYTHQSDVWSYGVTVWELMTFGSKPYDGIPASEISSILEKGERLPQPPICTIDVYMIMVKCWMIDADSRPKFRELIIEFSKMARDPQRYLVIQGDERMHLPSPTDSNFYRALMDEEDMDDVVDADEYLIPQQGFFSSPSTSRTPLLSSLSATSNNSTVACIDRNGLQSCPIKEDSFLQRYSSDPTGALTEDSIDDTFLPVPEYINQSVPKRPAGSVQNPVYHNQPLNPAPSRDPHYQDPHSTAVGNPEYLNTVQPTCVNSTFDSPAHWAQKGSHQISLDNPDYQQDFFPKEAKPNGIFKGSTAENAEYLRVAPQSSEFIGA

Row | SMILES | IC50 [nM]
1 | COc1ccc([C@@H](C)Nc2ncnc3cc(OC)c(OCCCCCCC(=O)NO)cc23)cc1 | ≥ 10000
2 | COc1cc2ncnc(N[C@H](C)c3ccc(Cl)cc3)c2cc1OCCCCCCC(=O)NO | 100 to 1000
3 | COc1cc2ncnc(NCc3cccc(Br)c3)c2cc1OCCCCCCC(=O)NO | 100 to 1000
4 | C[C@@H](Nc1ncnc2ccc(OCCCCCC(=O)NO)cc12)c1ccccc1 | 100 to 1000
5 | COc1cc2ncnc(N[C@H](C)c3ccc(F)cc3)c2cc1OCCCCCCC(=O)NO | 100 to 1000
6 | Nc1cc(Br)ccc1NC(=O)COc1ccc2ncnc(Nc3ccc(F)c(Cl)c3)c2c1 | 100 to 1000
7 | COc1cc2ncnc(Nc3ccc(F)c(Cl)c3)c2cc1OCCCCCCN(O)C(N)=O | ≤ 100
8 | COc1cc2ncnc(NCCc3ccccc3)c2cc1OCCCCCCC(=O)NO | 100 to 1000
9 | C#Cc1cccc(Nc2ncnc3cc(OC)c(NC(=O)CCCC(=O)NO)cc23)c1 | ≤ 100
10 | C#Cc1cccc(Nc2ncnc3cc(OCCCCCCC(=O)NO)c(OC)cc23)c1 | ≤ 100
11 | C#Cc1cccc(Nc2ncnc3cc(OC)c(NC(=O)CCCCC(=O)NO)cc23)c1 | ≤ 100
12 | COCCOc1cc2ncnc(Nc3ccc(F)c(Cl)c3)c2cc1NC(=O)CCCCCCC(=O)NO | ≤ 100
13 | C#Cc1cccc(Nc2ncnc3ccc(OCCCCC(=O)NO)cc23)c1 | ≤ 100
14 | COCCOc1cc2ncnc(Nc3ccc(F)c(Cl)c3)c2cc1OCCCCCCC(=O)NO | ≤ 100
15 | COc1cc2ncnc(Nc3ccc(F)c(Cl)c3)c2cc1SCCCCCCC(=O)NO | ≤ 100
16 | C[C@@H](Nc1ncnc2ccc(OCCCCCCC(=O)NO)cc12)c1ccccc1 | 100 to 1000
17 | C#Cc1cccc(Nc2ncnc3ccc(OCCCCCCC(=O)NO)cc23)c1 | 100 to 1000
18 | O=C(COc1ccc2ncnc(Nc3ccc(F)c(Cl)c3)c2c1)NO | ≤ 100
19 | COc1cc2ncnc(Nc3ccc(F)c(Cl)c3)c2cc1OCCCCCCC(=O)NO | ≤ 100
20 | COc1cc2ncnc(Nc3ccc(F)c(Cl)c3)c2cc1OCCCCCC(=O)NO | ≤ 100
21 | C#Cc1cc(Nc2ncnc3cc(OC)c(OCCCCCCC(=O)NO)cc23)ccc1O | ≤ 100

Row | SMILES | IC50 [nM]
22 | COc1cc2ncnc(NCc3ccc(F)c(F)c3)c2cc1OCCCCCCC(=O)NO | 100 to 1000
23 | COc1cc2ncnc(N[C@H](C)c3ccccc3)c2cc1OCCCCCC(=O)NO | ≤ 100
24 | O=C(CCOc1ccc2ncnc(Nc3ccc(F)c(Cl)c3)c2c1)NO | ≤ 100
25 | C#Cc1cccc(Nc2ncnc3cc(OC)c(OCCCCCC(=O)NO)cc23)c1 | ≤ 100
26 | COc1cc2ncnc(Nc3ccc(F)c(Cl)c3)c2cc1SCCCCC(=O)NO | ≤ 100
27 | COc1cc2ncnc(Nc3ccc(F)c(Cl)c3)c2cc1CCCCCC(=O)NO | ≤ 100
28 | COCCOc1cc2ncnc(Nc3ccc(F)c(Cl)c3)c2cc1NC(=O)CCCC(=O)NO | ≤ 100
29 | C#Cc1cccc(Nc2ncnc3ccc(OCC(=O)NO)cc23)c1 | ≤ 100
30 | COc1cc2ncnc(Nc3ccc(F)c(Cl)c3)c2cc1NC(=O)CCCCCCC(=O)NO | ≤ 100
31 | COCCOc1cc2c(Nc3ccc(F)c(Cl)c3)ncnc2cc1OCCCCCCC(=O)NO | ≤ 100
32 | C#Cc1cccc(Nc2ncnc3ccc(OCCCC(=O)NO)cc23)c1 | 100 to 1000
33 | C#Cc1cccc(Nc2ncnc3cc(OC)c(OCCCC(=O)NO)cc23)c1 | ≤ 100
34 | C#Cc1cccc(Nc2ncnc3cc(OCCCCCCC(=O)NO)c(OCCOC)cc23)c1 | ≤ 100
35 | C#Cc1cccc(Nc2ncnc3ccc(OCCCCCC(=O)NO)cc23)c1 | 100 to 1000
36 | COc1cc2ncnc(Nc3ccc(F)c(Cl)c3)c2cc1OCCOc1ccc(CC(=O)NO)cc1 | ≤ 100
37 | O=C(CCCCCCOc1ccc2ncnc(Nc3ccc(F)c(Cl)c3)c2c1)NO | ≤ 100
38 | O=C(CCCCCNCc1ccc(-c2ccc3ncnc(Nc4ccc(OCc5cccc(F)c5)c(Cl)c4)c3c2)o1)NO | ≤ 100
39 | C#Cc1cc(Nc2ncnc3cc(OC)c(OCCCCCCC(=O)NO)cc23)ccc1F | ≤ 100
40 | O=C(CCCCCOc1ccc2ncnc(Nc3ccc(F)c(Cl)c3)c2c1)NO | ≤ 100
41 | C#Cc1cccc(Nc2ncnc3cc(OC)c(OCC(=O)NO)cc23)c1 | ≤ 100

Next, values leading:

Row | IC50 [nM] | SMILES
42 | ≤ 100 | COc1cc2ncnc(Nc3ccc(F)c(Cl)c3)c2cc1OCCOc1ccc(C=CC(=O)NO)cc1
43 | ≤ 100 | O=C(CCCCCCCNCc1ccc(-c2ccc3ncnc(Nc4ccc(OCc5cccc(F)c5)c(Cl)c4)c3c2)o1)NO
44 | ≤ 100 | COc1cc2ncnc(NCc3ccccc3)c2cc1OCCCCCCC(=O)NO
45 | ≤ 100 | COCCOc1cc2ncnc(Nc3ccc(OCc4cccc(F)c4)c(Cl)c3)c2cc1OCCCCCCC(=O)NO
46 | ≤ 100 | COc1cc2ncnc(Nc3ccc(F)c(Cl)c3)c2cc1OCC(=O)NO
47 | ≤ 100 | COc1cc2ncnc(Nc3ccc(F)c(Cl)c3)c2cc1OCCC(=O)NO
48 | ≤ 100 | C#Cc1cccc(Nc2ncnc3cc(OCCOC)c(OCCCCCCC(=O)NO)cc23)c1
49 | ≤ 100 | C#Cc1cc(Nc2ncnc3cc(OCCOC)c(OCCCCCCC(=O)NO)cc23)ccc1F
50 | ≤ 100 | O=C(CCCCOc1ccc2ncnc(Nc3ccc(F)c(Cl)c3)c2c1)NO
51 | ≤ 100 | COCCOc1cc2ncnc(Nc3ccc(F)c(Cl)c3)c2cc1NC(=O)CCCCC(=O)NO
52 | ≤ 100 | COc1cc2ncnc(Nc3ccc(F)c(Cl)c3)c2cc1OCCCCC(=O)NO
53 | ≤ 100 | COc1cc2ncnc(Nc3ccc(F)c(Cl)c3)c2cc1NC(=O)CCCC(=O)NO
54 | ≤ 100 | COc1cc2ncnc(Nc3ccc(F)c(Cl)c3)c2cc1OCCCCCCC(=O)N(C)O
55 | ≤ 100 | C#Cc1cccc(Nc2ncnc3cc(OC)c(OCCC(=O)NO)cc23)c1
56 | ≤ 100 | C#Cc1cccc(Nc2ncnc3cc(OC)c(NC(=O)CCCCCCC(=O)NO)cc23)c1
57 | ≤ 100 | COc1cc2ncnc(NCc3ccc(F)c(Cl)c3)c2cc1OCCCCCCC(=O)NO
58 | ≤ 100 | C#Cc1cccc(Nc2ncnc3cc(O)c(OCCCCCCC(=O)NO)cc23)c1
59 | ≤ 100 | COc1cc2ncnc(Nc3ccc(F)c(Cl)c3)c2cc1OCCCC(=O)NO
60 | ≤ 100 | COc1cc2ncnc(Nc3ccc(F)c(Cl)c3)c2cc1OCCOc1ccc(C(=O)NO)cc1
61 | ≤ 100 | O=C(CCCCCCOc1ccc2ncnc(Nc3ccc(OCc4cccc(F)c4)c(Cl)c3)c2c1)NO
62 | ≤ 100 | COc1cc2ncnc(Nc3ccc(OCc4cccc(F)c4)c(Cl)c3)c2cc1OCCCCCCC(=O)NO
63 | ≤ 100 | COc1cc2ncnc(Nc3ccc(F)c(Cl)c3)c2cc1NC(=O)Nc1ccc(C(=O)NO)cc1
